# Measured values published in PubChem BioAssay AID1918934 (Molecular Pharmacology Branch, DTP, NCI, 2023).
# System: 292921-168-R-J2-PDC complex spheroid viability
# Assay: Anticancer human tumor 292921-168-R-J2-PDC patient-derived pancreatic carcinoma cell line growth inhibition
# Conditions: for IC50: curve of first compound; for viability, T/C: stronger effect = lower value
# In short: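 Multicellular complex spheroids of tumor cells with human endothelial cells (HUVEC) and mesenchymal stem cells; the LSD1 inhibitor iadademstat was combined with standard-of-care or investigational agents. Top concentration at or near clinical Cmax, half-log dilutions; final DMSO ≤0.25%.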
# [1] = second compound 0.1 µM, first compound 0.000316 µM
# [2] = second compound 0.1 µM, first compound 0.001 µM
# [3] = second compound 0.1 µM, first compound 0.00316 µM
# [4] = second compound 0.1 µM, first compound 0.01 µM
# [5] = second compound 0.1 µM, first compound 0.0316 µM
# [6] = second compound 0.1 µM, first compound 0.1 µM
# [7] = second compound 0.316 µM, first compound 0.000316 µM
# [8] = second compound 0.316 µM, first compound 0.001 µM
# [9] = second compound 0.316 µM, first compound 0.00316 µM
# [10] = second compound 0.316 µM, first compound 0.01 µM
# [11] = second compound 0.316 µM, first compound 0.0316 µM
# [12] = second compound 0.316 µM, first compound 0.1 µM
# [13] = second compound 1 µM, first compound 0.000316 µM
# [14] = second compound 1 µM, first compound 0.001 µM
# [15] = second compound 1 µM, first compound 0.00316 µM
# [16] = second compound 1 µM, first compound 0.01 µM
# [17] = second compound 1 µM, first compound 0.0316 µM
# [18] = second compound 1 µM, first compound 0.1 µM
# [19] = second compound 3.16 µM, first compound 0.000316 µM
# [20] = second compound 3.16 µM, first compound 0.001 µM
# [21] = second compound 3.16 µM, first compound 0.00316 µM
# [22] = second compound 3.16 µM, first compound 0.01 µM
# [23] = second compound 3.16 µM, first compound 0.0316 µM
# [24] = second compound 3.16 µM, first compound 0.1 µM
# [25] = second compound 10 µM, first compound 0.000316 µM
# [26] = second compound 10 µM, first compound 0.001 µM
# [27] = second compound 10 µM, first compound 0.00316 µM
# [28] = second compound 10 µM, first compound 0.01 µM
# [29] = second compound 10 µM, first compound 0.0316 µM
# [30] = second compound 10 µM, first compound 0.1 µM
# [31] = second compound 0.1 µM, first compound 0.00949 µM
# [32] = second compound 0.1 µM, first compound 0.03 µM
# [33] = second compound 0.1 µM, first compound 0.0949 µM
# [34] = second compound 0.1 µM, first compound 0.3 µM
# [35] = second compound 0.1 µM, first compound 0.949 µM
# [36] = second compound 0.1 µM, first compound 3 µM
# [37] = second compound 0.316 µM, first compound 0.00949 µM
# [38] = second compound 0.316 µM, first compound 0.03 µM
# [39] = second compound 0.316 µM, first compound 0.0949 µM
# [40] = second compound 0.316 µM, first compound 0.3 µM
# [41] = second compound 0.316 µM, first compound 0.949 µM
# [42] = second compound 0.316 µM, first compound 3 µM
# [43] = second compound 1 µM, first compound 0.00949 µM
# [44] = second compound 1 µM, first compound 0.03 µM
# [45] = second compound 1 µM, first compound 0.0949 µM
# [46] = second compound 1 µM, first compound 0.3 µM
# [47] = second compound 1 µM, first compound 0.949 µM
# [48] = second compound 1 µM, first compound 3 µM
# [49] = second compound 3.16 µM, first compound 0.00949 µM
# [50] = second compound 3.16 µM, first compound 0.03 µM
# [51] = second compound 3.16 µM, first compound 0.0949 µM
# [52] = second compound 3.16 µM, first compound 0.3 µM
# [53] = second compound 3.16 µM, first compound 0.949 µM
# [54] = second compound 3.16 µM, first compound 3 µM
# [55] = second compound 10 µM, first compound 0.00949 µM
# [56] = second compound 10 µM, first compound 0.03 µM
# [57] = second compound 10 µM, first compound 0.0949 µM
# [58] = second compound 10 µM, first compound 0.3 µM
# [59] = second compound 10 µM, first compound 0.949 µM
# [60] = second compound 10 µM, first compound 3 µM
# 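Further: seven day compound exposure before luminescent viability read.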
# 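Wherever viability, T/C is given: 100% = DMSO vehicle control wells.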
structure (smiles),measurement,setting,value
CC(C)CC(NC(=O)C(Cc1ccccc1)NC(=O)c1cnccn1)B(O)O (stereo not given) + NC1CCC(NC2CC2c2ccccc2)CC1,IC50,second compound 0.1 µM,< 0.316 nM
same,IC50,second compound 0.316 µM,< 0.316 nM
same,IC50,second compound 1 µM,< 0.316 nM
same,IC50,second compound 3.16 µM,< 0.316 nM
same,IC50,second compound 10 µM,< 0.316 nM
same,"viability, T/C",[1],16.3%
same,"viability, T/C",[2],0.63%
same,"viability, T/C",[3],0.17%
same,"viability, T/C",[4],0.16%
same,"viability, T/C",[5],0.11%
same,"viability, T/C",[6],0.14%
same,"viability, T/C",[7],15.9%
same,"viability, T/C",[8],0.67%
same,"viability, T/C",[9],0.21%
same,"viability, T/C",[10],3.23%
same,"viability, T/C",[11],0.17%
same,"viability, T/C",[12],0.19%
same,"viability, T/C",[13],16.1%
same,"viability, T/C",[14],0.64%
same,"viability, T/C",[15],0.24%
same,"viability, T/C",[16],0.12%
same,"viability, T/C",[17],0.26%
same,"viability, T/C",[18],0.25%
same,"viability, T/C",[19],13.8%
same,"viability, T/C",[20],0.62%
same,"viability, T/C",[21],0.17%
same,"viability, T/C",[22],0.1%
same,"viability, T/C",[23],0.08%
same,"viability, T/C",[24],0.16%
same,"viability, T/C",[25],12.2%
same,"viability, T/C",[26],0.55%
same,"viability, T/C",[27],0.22%
same,"viability, T/C",[28],0.19%
same,"viability, T/C",[29],0.14%
same,"viability, T/C",[30],0.47%
CC(C)CC(NC(=O)CNC(=O)c1cc(Cl)ccc1Cl)B1OC(=O)CC(CC(=O)O)(C(=O)O)O1 (stereo not given) + NC1CCC(NC2CC2c2ccccc2)CC1,IC50,second compound 0.1 µM,4.8 nM
same,IC50,second compound 0.316 µM,4.28 nM
same,IC50,second compound 1 µM,4.66 nM
same,IC50,second compound 3.16 µM,4.25 nM
same,IC50,second compound 10 µM,4.24 nM
same,"viability, T/C",[1],75.8%
same,"viability, T/C",[2],69.4%
same,"viability, T/C",[3],70.9%
same,"viability, T/C",[4],13.4%
same,"viability, T/C",[5],2.33%
same,"viability, T/C",[6],0.79%
same,"viability, T/C",[7],60.9%
same,"viability, T/C",[8],70.9%
same,"viability, T/C",[9],61.9%
same,"viability, T/C",[10],16.1%
same,"viability, T/C",[11],2.1%
same,"viability, T/C",[12],0.69%
same,"viability, T/C",[13],63.8%
same,"viability, T/C",[14],73%
same,"viability, T/C",[15],66.7%
same,"viability, T/C",[16],17.2%
same,"viability, T/C",[17],2.39%
same,"viability, T/C",[18],0.76%
same,"viability, T/C",[19],54.9%
same,"viability, T/C",[20],67%
same,"viability, T/C",[21],63.5%
same,"viability, T/C",[22],15.9%
same,"viability, T/C",[23],1.7%
same,"viability, T/C",[24],0.63%
same,"viability, T/C",[25],58.6%
same,"viability, T/C",[26],69%
same,"viability, T/C",[27],63.1%
same,"viability, T/C",[28],11.7%
same,"viability, T/C",[29],1.43%
same,"viability, T/C",[30],0.5%
Nc1ccccc1NC(=O)c1ccc(CNC(=O)OCc2cccnc2)cc1 + NC1CCC(NC2CC2c2ccccc2)CC1,IC50,second compound 0.1 µM,28.7 nM
same,IC50,second compound 0.316 µM,15.1 nM
same,IC50,second compound 1 µM,< 9.49 nM
same,IC50,second compound 3.16 µM,13.1 nM
same,IC50,second compound 10 µM,< 9.49 nM
same,"viability, T/C",[31],61.3%
same,"viability, T/C",[32],48.3%
same,"viability, T/C",[33],34.6%
same,"viability, T/C",[34],20.5%
same,"viability, T/C",[35],3.31%
same,"viability, T/C",[36],0.22%
same,"viability, T/C",[37],53.1%
same,"viability, T/C",[38],45.2%
same,"viability, T/C",[39],34.6%
same,"viability, T/C",[40],18.8%
same,"viability, T/C",[41],3.86%
same,"viability, T/C",[42],0.24%
same,"viability, T/C",[43],50.8%
same,"viability, T/C",[44],39.9%
same,"viability, T/C",[45],33.4%
same,"viability, T/C",[46],20.6%
same,"viability, T/C",[47],3.16%
same,"viability, T/C",[48],0.22%
same,"viability, T/C",[49],52.9%
same,"viability, T/C",[50],43%
same,"viability, T/C",[51],27.2%
same,"viability, T/C",[52],16.3%
same,"viability, T/C",[53],2.26%
same,"viability, T/C",[54],0.38%
same,"viability, T/C",[55],42.5%
same,"viability, T/C",[56],39.5%
same,"viability, T/C",[57],26.8%
same,"viability, T/C",[58],14.2%
same,"viability, T/C",[59],0.79%
same,"viability, T/C",[60],0.3%
O=C(C=Cc1cccc(S(=O)(=O)Nc2ccccc2)c1)NO + NC1CCC(NC2CC2c2ccccc2)CC1,IC50,second compound 0.1 µM,< 9.49 nM
same,IC50,second compound 0.316 µM,< 9.49 nM
same,IC50,second compound 1 µM,< 9.49 nM
same,IC50,second compound 3.16 µM,< 9.49 nM
same,IC50,second compound 10 µM,< 9.49 nM
same,"viability, T/C",[31],44%
same,"viability, T/C",[32],36.2%
same,"viability, T/C",[33],28.6%
same,"viability, T/C",[34],17.3%
same,"viability, T/C",[35],0.45%
same,"viability, T/C",[36],0.08%
same,"viability, T/C",[37],48.7%
same,"viability, T/C",[38],34.8%
same,"viability, T/C",[39],31.6%
same,"viability, T/C",[40],19.1%
same,"viability, T/C",[41],0.37%
same,"viability, T/C",[42],0.38%
same,"viability, T/C",[43],43.8%
same,"viability, T/C",[44],35.6%
same,"viability, T/C",[45],30.9%
same,"viability, T/C",[46],15.2%
same,"viability, T/C",[47],0.34%
same,"viability, T/C",[48],0.09%
same,"viability, T/C",[49],40%
same,"viability, T/C",[50],33.4%
same,"viability, T/C",[51],24.4%
same,"viability, T/C",[52],12.4%
same,"viability, T/C",[53],0.19%
same,"viability, T/C",[54],0.08%
same,"viability, T/C",[55],42.2%
same,"viability, T/C",[56],32.4%
same,"viability, T/C",[57],22.9%
same,"viability, T/C",[58],7.61%
same,"viability, T/C",[59],0.12%
same,"viability, T/C",[60],0.13%
O=C(c1cc(Cc2n[nH]c(=O)c3ccccc23)ccc1F)N1CCN(C(=O)C2CC2)CC1 + NC1CCC(NC2CC2c2ccccc2)CC1,IC50,second compound 0.1 µM,4520 nM
same,IC50,second compound 0.316 µM,3020 nM
same,IC50,second compound 1 µM,1060 nM
same,IC50,second compound 3.16 µM,1220 nM
same,IC50,second compound 10 µM,1300 nM
same,"viability, T/C",[5],63.7%
same,"viability, T/C",[6],65.6%
same,"viability, T/C","second compound 0.1 µM, first compound 0.316 µM",70.3%
same,"viability, T/C","second compound 0.1 µM, first compound 1 µM",58.6%
same,"viability, T/C","second compound 0.1 µM, first compound 3.16 µM",55%
same,"viability, T/C","second compound 0.1 µM, first compound 10 µM",39.5%
same,"viability, T/C",[11],61.5%
same,"viability, T/C",[12],59.8%
same,"viability, T/C","second compound 0.316 µM, first compound 0.316 µM",64.7%
same,"viability, T/C","second compound 0.316 µM, first compound 1 µM",57.1%
same,"viability, T/C","second compound 0.316 µM, first compound 3.16 µM",47.5%
same,"viability, T/C","second compound 0.316 µM, first compound 10 µM",36%
same,"viability, T/C",[17],55.5%
same,"viability, T/C",[18],58.6%
same,"viability, T/C","second compound 1 µM, first compound 0.316 µM",51.8%
same,"viability, T/C","second compound 1 µM, first compound 1 µM",51.9%
same,"viability, T/C","second compound 1 µM, first compound 3.16 µM",42.5%
same,"viability, T/C","second compound 1 µM, first compound 10 µM",31.8%
same,"viability, T/C",[23],55.4%
same,"viability, T/C",[24],54.5%
same,"viability, T/C","second compound 3.16 µM, first compound 0.316 µM",60%
same,"viability, T/C","second compound 3.16 µM, first compound 1 µM",50.3%
same,"viability, T/C","second compound 3.16 µM, first compound 3.16 µM",42%
same,"viability, T/C","second compound 3.16 µM, first compound 10 µM",34.9%
same,"viability, T/C",[29],53.9%
same,"viability, T/C",[30],54.4%
same,"viability, T/C","second compound 10 µM, first compound 0.316 µM",54.4%
same,"viability, T/C","second compound 10 µM, first compound 1 µM",52%
same,"viability, T/C","second compound 10 µM, first compound 3.16 µM",42.9%
same,"viability, T/C","second compound 10 µM, first compound 10 µM",32%
